Two compounds from article PMC11467302, “Discovery of a potent, Kv7.3-selective potassium channel opener from a Polynesian traditional botanical anticonvulsant” (Communications Chemistry, 2024) can be followed below.

Common to all, as to type: cell-based
Assay [1] addresses T1, Kv7.3 (Homo sapiens, UniProt O43525).
T1 construct: gene KCNQ3; Kv7.2/3 heteromer expressed in Xenopus oocytes; with Kv7.2 (KCNQ2)
Nature of the assay: two-electrode voltage clamp at […], shift of V0.5act.

A further assay has as its target T2, Kv7.3* (Homo sapiens, UniProt O43525, A315T).
T2 construct: gene KCNQ3; Kv7.3* homomer expressed in Xenopus oocytes
T2 sequence (O43525 1-872 A315T): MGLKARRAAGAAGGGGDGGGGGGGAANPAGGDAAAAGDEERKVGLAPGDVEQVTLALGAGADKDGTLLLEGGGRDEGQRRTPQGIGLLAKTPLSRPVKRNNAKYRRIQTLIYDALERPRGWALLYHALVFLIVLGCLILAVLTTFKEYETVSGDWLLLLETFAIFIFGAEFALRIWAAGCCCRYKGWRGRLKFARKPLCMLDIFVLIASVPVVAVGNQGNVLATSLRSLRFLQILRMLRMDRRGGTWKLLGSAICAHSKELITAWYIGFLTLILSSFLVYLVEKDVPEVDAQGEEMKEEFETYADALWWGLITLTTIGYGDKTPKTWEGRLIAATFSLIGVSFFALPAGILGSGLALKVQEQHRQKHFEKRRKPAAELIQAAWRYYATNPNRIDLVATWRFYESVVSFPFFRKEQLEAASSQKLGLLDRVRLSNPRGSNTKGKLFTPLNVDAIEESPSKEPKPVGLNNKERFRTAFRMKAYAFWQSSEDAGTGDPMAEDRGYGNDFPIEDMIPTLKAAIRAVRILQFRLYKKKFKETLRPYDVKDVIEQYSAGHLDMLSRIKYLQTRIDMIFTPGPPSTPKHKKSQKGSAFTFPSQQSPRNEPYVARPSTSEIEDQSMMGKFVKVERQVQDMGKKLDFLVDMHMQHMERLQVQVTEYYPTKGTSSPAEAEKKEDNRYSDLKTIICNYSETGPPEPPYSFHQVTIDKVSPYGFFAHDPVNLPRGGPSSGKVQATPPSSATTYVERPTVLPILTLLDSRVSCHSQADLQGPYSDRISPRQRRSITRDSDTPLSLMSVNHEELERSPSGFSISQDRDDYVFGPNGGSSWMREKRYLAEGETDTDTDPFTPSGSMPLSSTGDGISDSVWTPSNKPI
Nature of the assay: two-electrode voltage clamp, shift of V0.5act, dose response.

Assay [2] has as its target T1, Kv7.3. The description is as above.

T1 sequence (O43525 whole entry): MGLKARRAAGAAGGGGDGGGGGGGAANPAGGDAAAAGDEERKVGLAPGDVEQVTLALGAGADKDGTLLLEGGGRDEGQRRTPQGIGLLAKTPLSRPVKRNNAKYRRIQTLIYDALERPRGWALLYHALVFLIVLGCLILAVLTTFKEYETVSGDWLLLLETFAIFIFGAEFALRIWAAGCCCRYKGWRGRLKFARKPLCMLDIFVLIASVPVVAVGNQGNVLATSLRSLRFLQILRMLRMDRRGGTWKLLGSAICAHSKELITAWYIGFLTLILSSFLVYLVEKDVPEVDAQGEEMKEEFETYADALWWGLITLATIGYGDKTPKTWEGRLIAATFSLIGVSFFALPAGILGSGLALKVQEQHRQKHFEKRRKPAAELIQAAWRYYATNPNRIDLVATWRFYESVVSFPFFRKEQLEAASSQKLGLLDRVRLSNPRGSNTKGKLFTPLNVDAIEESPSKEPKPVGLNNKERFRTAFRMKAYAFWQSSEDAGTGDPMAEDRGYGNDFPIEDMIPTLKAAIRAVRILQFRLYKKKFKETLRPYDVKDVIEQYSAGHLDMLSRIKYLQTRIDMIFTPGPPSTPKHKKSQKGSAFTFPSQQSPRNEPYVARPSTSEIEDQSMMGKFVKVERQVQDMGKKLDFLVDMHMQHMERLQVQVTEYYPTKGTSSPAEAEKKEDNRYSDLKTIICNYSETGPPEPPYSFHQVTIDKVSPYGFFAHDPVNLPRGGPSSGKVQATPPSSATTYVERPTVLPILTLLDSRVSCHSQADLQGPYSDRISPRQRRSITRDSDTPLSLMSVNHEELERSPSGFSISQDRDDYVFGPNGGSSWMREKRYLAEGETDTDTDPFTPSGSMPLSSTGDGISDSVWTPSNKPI
T1 sequence (O43526 whole entry partner): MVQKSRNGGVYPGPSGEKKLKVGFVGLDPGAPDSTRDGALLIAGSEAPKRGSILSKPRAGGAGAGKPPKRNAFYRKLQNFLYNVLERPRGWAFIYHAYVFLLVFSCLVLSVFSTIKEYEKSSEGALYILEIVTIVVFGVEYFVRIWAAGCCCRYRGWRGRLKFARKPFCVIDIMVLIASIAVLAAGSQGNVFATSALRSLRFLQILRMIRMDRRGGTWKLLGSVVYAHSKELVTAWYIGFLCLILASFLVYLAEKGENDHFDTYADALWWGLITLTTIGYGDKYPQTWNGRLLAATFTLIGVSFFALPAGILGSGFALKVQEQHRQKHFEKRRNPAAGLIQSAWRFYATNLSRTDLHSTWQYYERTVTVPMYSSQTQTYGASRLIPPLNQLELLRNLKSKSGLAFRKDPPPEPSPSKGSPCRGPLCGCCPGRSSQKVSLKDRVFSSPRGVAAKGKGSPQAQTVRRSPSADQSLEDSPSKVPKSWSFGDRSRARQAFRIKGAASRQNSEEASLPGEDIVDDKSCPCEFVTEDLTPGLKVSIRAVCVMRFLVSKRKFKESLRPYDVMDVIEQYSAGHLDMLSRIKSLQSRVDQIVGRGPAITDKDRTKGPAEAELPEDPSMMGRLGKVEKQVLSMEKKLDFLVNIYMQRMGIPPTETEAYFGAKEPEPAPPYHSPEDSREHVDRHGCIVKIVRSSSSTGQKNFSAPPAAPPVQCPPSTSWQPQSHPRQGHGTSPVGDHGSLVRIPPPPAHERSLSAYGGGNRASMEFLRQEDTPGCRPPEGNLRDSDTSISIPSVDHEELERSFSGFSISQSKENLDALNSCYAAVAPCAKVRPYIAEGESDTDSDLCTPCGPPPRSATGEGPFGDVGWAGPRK

As for `O=S(=O)(O)c1cc(O)ccc1O` [calcium dobesilate], the “two-electrode voltage clamp at 100 μM, shift of V0.5act” value on Kv7.3 [1] is “one analog of GA did exhibit similar efficacy to that of GA—the sulfonic acid, calcium dobesilate”.
For the compound `O=C(O)c1cc(O)ccc1O` [GA, gentisic acid], the EC50 on Kv7.3* was 0.79 nM; on Kv7.3 [2], 2.8 nM.

As a reminder, the EC50 is the concentration giving half of the maximal effect.
